# Patent US8865741B2, “Aminoindane compounds and use thereof in treating pain” (Asana Biosciences, LLC, priority 2011, dated 2014)
# Assays:
# [1] = system: sodium channel in hTRPV1-N1E115 cells; assay: FLIPR membrane potential assay of sodium channel response in hTRPV1-N1E115 cells, with (47° C.) or without (25° C.) heat activation of hTRPV1; type: cell-based; conditions: for hTRPV1-N1E Nav 0.1 mM (% inhibition) 25° C. / hTRPV1-N1E Nav 1 mM (% inhibition) 25° C.: 25° C. (no heat activation of hTRPV1); for hTRPV1-N1E Nav 0.1 mM (% inhibition) 47° C. / hTRPV1-N1E Nav 1 mM (% inhibition) 47° C.: 47° C. (heat activation of hTRPV1); for IC50 / hTRPV1-N1E Nav 0.1 mM (% inhibition) 47° C., DMSO: 47° C.; for IC50: class symbols, read-out: hTRPV1-N1E IC50 (μM) 47° C.
# Description: In one embodiment, a modified FLIPR® (Fluorometric Imaging Plate Reader) based assay system was developed which is capable of discriminating between non-specific versus hTRPV1-mediated entry of test compounds. Advantageously, the assay system utilizes heat activated opening of hTRPV1 channels followed by an assessment of internal sodium channel block. The assay allows a permanently charged compound to selectively enter through opened hTRPV1 channels and that compound's potency in inhibiting sodium channels from the cytoplasm side of the same cell can be assessed and quantified.
# The assay is readily performed in multi-well assay plates into which cells in growth media are added and incubated under conditions which permit the formation of a confluent monolayer over a period of hours prior to the start of the assay. Conventional culture media and conditions may be utilized. Duplicate cell assay plates are prepared for each experiment.
# The spent media from the cell seeded plates is removed on the day of the assay and replaced with Membrane potential Dye-Blue (Molecular Devices). The dye was prepared in assay buffer following manufacturer's instructions. The dye-loaded plate is incubated at room temperature (about 25° C.) for about 30 minutes in order to pre-load the cells with dye. Optionally, the cells may be loaded with the dye simultaneously with adding the test compounds.
# The test compounds are diluted in the Assay Buffer and added to each well of a specific 384-well ‘compound plate’, which serves as a source plate for compound addition using the FLIPR® platform. The concentration of compounds in the compound-plate was adjusted to achieve the desired final concentration when added to the cells in the ‘cell-plate’. After completion of the dye incubation period, the dye loaded cell-plates and the compound source plates are inserted into the FLIPR® Tetra™ device with a 384 FLIPR® tip box (Molecular Devices, Inc.) according to manufacturer's instructions. The compounds are robotically added to the dye loaded cell-plates using software integral to the FLIPR® Tetra™ instrument.
# Immediately following compound addition, hTRPV1 is activated, in one of the duplicate cell plates, by heating. Specifically, entire multi-well plate containing the compound-cells mixture is incubated at 47° C. for 10 minutes, after which they are returned to room temperature (about 25° C.) for a further 30 minutes. Heat activation of hTRPV1 was omitted from the replicate cell plate which was simply maintained at room temperature for the entire 40 minutes.
# A membrane potential response is elicited in the dye- and compound-loaded cells by the addition of veratridine which is a known sodium channel ‘agonist’. As illustrated in an example herein, an agonist plate containing veratridine (Sigma) is prepared in advance and is inserted into suitable devices such as, e.g., the FLIPR® TETRA® device for a “2nd addition” as instructed by the manufacturer. The concentration of veratridine in the ‘agonist plate’ was adjusted to achieve a final concentration of 100 μM when added to the cells in the cell-plate. Final concentrations of veratridine greater or lesser than 100 μM may also be used but the signal measured by the FLIPR®^Tetra™ device or another suitable device may vary accordingly.
# The exposure of the cells in the cell-plate to veratridine induces sodium channels in the cells to open and the resulting ion flux produces a membrane potential depolarization that is detected as a fluorescence signal by the FLIPR® ^Tetra™ Device. The activity of test compounds is determined by their ability to attenuate the veratridine-induced fluorescence signal, the most promising compounds are those that show an enhanced activity in the heat-activated cell plate over the non-heat-activated cell plate. […]
# [2] = system: Male Sprague Dawley (SD) rats; assay: In vivo assay of mechanical nociception (rat pinch model, perisciatic injection); conditions: for Average Time of Analgesia: perisciatic
SMILES,hTRPV1-N1E Nav 0.1 mM (% inhibition) 25° C. [1] [%],hTRPV1-N1E Nav 0.1 mM (% inhibition) 47° C. [1],hTRPV1-N1E Nav 1 mM (% inhibition) 25° C. [1],hTRPV1-N1E Nav 1 mM (% inhibition) 47° C. [1],IC50 [1] [µM],other results
"Cc1ccccc1N(CCC1CCCC[N+]1(C)C)C1Cc2ccccc2C1.[I-] (stereo not drawn) [Example 24, 1,1-dimethyl-2-[2-((indan-2-yl)(2-methylphenyl)amino)ethyl]piperidinium iodide]",25.1,88.5 (N = 2) %,57.9 (N = 2) %,84.2 (N = 2) %,1 to 10,"duration of anti-nociception effect ([2]; 100 μL injection volume, 0.5% compound with 2% lidocaine (Table 8)): up to 32 hours; Average Time of Analgesia ([2]; test compound 0.25%, lidocaine 0%, total injection 200 μL): 4 h; Average Time of Analgesia ([2]; test compound 0.25%, lidocaine 1%, total injection 200 μL): 24 h; Average Time of Analgesia ([2]; test compound 0.5%, lidocaine 0%, total injection 200 μL): 12 h; Average Time of Analgesia ([2]; test compound 0.5%, lidocaine 2%, total injection 100 μL): 32 h; Average Time of Analgesia ([2]; test compound 0.5%, lidocaine 2%, total injection 200 μL): >168 h"
"Cc1cccc(N(CCC2CCCC[N+]2(C)C)C2Cc3ccccc3C2)n1.[Br-] (stereo not drawn) [Example 48, 1,1-Dimethyl-2-[2-((indan-2-yl)(6-methylpyridine-2-yl)amino)ethyl]piperidinium bromide]",29.6,–,–,–,10 to 100,–
"CC[N+]1(CC)CCCCC1CCN(c1cccc(C)c1)C1Cc2ccccc2C1.[I-] (stereo not drawn) [Example 21, 1,1-Diethyl-2-[2-((indan-2-yl)(3-methylphenyl)amino)ethyl]piperidinium iodide]",44.7,80.2 (N = 3) %,58.2 (N = 3) %,64.3 (N = 3) %,10 to 100,–
"C[N+]1(C)CCCCC1CCN(c1ncccn1)C1Cc2ccccc2C1.[I-] (stereo not drawn) [Example 38, 1,1-dimethyl-2-[2-((indan-2-yl)(pyrimidine-2-yl)amino)ethyl]piperidinium iodide]",25.9,37.5 (N = 2) %,46.6 (N = 2) %,70.4 (N = 2) %,–,–
"C[N+]1(C)CCCCC1CCN(c1ccc2c(c1)OCCO2)C1Cc2ccccc2C1.[I-] (stereo not drawn) [Example 42, 1,1-dimethyl-2-[2-((2,3-dihydrobenzo[b][1,4]dioxin-6-yl)(indan-2-yl)amino)ethyl]piperidinium iodide]",0,64.9 (N = 2) %,–,–,–,–
"Cc1cccc(N(CCC2CCCC[N+]2(C)C)C2Cc3ccccc3C2)n1.[I-] (stereo not drawn) [Example 47, 1,1-Dimethyl-2-[2-((indan-2-yl)(6-methylpyridine-2-yl)amino)ethyl]piperidinium iodide]",30.7,79.5 (N = 2) %,–,–,10 to 100,–
"Cc1ccccc1N(CCC1CCCC[N+]1(C)C)C1Cc2ccccc2C1 (stereo not drawn) [Example 52, 1,1-Dimethyl-2-[2-((indan-2-yl)(2-methylphenyl)amino)ethyl]piperidinium bromide]",–,–,–,–,10 to 100,–
"Cc1ccccc1N(CCC1CCCC[N+]12CCOCC2)C1Cc2ccccc2C1.[Cl-] (stereo not drawn) [Example 41, 7-[2-((indan-2-yl)(2-methylphenyl)amino)ethyl]-3-oxa-6-azaspiro[5.5]undecan-6-ium chloride]",8.3,–,–,–,10 to 100,–
"CCC[N+]1(CCC)CCCC[C@@H]1CCN(c1ccccc1)C1Cc2ccccc2C1.[I-] [Example 12, (R)-1,1-Dipropyl-2-[2-((indan-2-yl)(phenyl)amino)ethyl]piperidinium iodide]",–,–,–,–,–,"hTRPV1-N1E Nav 0.1 mM (% inhibition) 25° C., DMSO [1]: 49%; hTRPV1-N1E Nav 0.1 mM (% inhibition) 47° C., DMSO [1]: 87 (N = 4, DMSO) %"
"CC[N+]1(CC)CCCCC1CCN(c1ccc(F)cc1)C1Cc2ccccc2C1.[I-] (stereo not drawn) [Example 18, 1,1-diethyl-2-[2-((4-fluorophenyl)(indan-2-yl)amino)ethyl]piperidinium iodide]",0,86.9 (N = 3) %,0 (N = 3) %,38.2 (N = 3) %,10 to 100,–
"Cc1cccc(N(CCC2CCCC[N+]2(C)C)C2Cc3ccccc3C2)c1.[I-] (stereo not drawn) [Example 19, 1,1-Dimethyl-2-[2-((indan-2-yl)(3-methylphenyl)amino)ethyl]piperidinium iodide]",0,87.9%,Insoluble,Insoluble,10 to 100,–
"Cc1cccc(N(CC2CCCC[N+]2(C)C)C2Cc3ccccc3C2)c1.[I-] (stereo not drawn) [Example 29, 1,1-Dimethyl-2-[((indan-2-yl)(3-methylphenyl)amino)methyl]piperidinium iodide]",68.9,82.9 (N = 2) %,64.6 (N = 2) %,75.3 (N = 2) %,–,–
"Cc1ccccc1N(CC[C@H]1CCCC[N+]1(C)C)C1Cc2ccccc2C1 [Example 35, (R)-1,1-Dimethyl-2-[2-((indan-2-yl)(2-methylphenyl)amino)ethyl]piperidinium iodide]",–,–,–,–,10 to 100,–
"CC[N+]1(CC)CCCCC1CN(c1ccccc1)C1Cc2ccccc2C1.[I-] (stereo not drawn) [Example 13, 1,1-Diethyl-2-[((indan-2-yl)(phenyl)amino)methyl]piperidinium iodide]",67,99 (N = 2) %,64 (N = 2) %,92 (N = 2) %,10 to 100,–
"CCC[N+]1(CCC)CCCC[C@H]1CCN(c1ccccc1)C1Cc2ccccc2C1.[I-] [Example 1, (S)-1,1-dipropyl-2-[2-((indan-2-yl)(phenyl)amino)ethyl]piperidinium iodide]",–,–,–,–,–,"hTRPV1-N1E Nav 0.1 mM (% inhibition) 25° C., DMSO [1]: 56%; hTRPV1-N1E Nav 0.1 mM (% inhibition) 47° C., DMSO [1]: 87 (N = 4, DMSO) %"
C[N+]1(C)CCCCC1CCCN(c1ccccc1)C1Cc2ccccc2C1.[I-] (stereo not drawn) [Example 7],27.3,57.9 (N = 2) %,Insoluble,Insoluble,10 to 100,–
"C[N+]1(C)CCCCC1CCN(c1ccccn1)C1Cc2ccccc2C1.[I-] (stereo not drawn) [Example 37, 1,1-dimethyl-2-[2-((indan-2-yl)(pyridine-2-yl)amino)ethyl]piperidinium iodide]",21.5,60.7 (N = 2) %,59.5 (N = 2) %,24.0 (N = 2) %,10 to 100,–
"Cc1ccccc1N(CC[C@@H]1CCCC[N+]1(C)C)C1Cc2ccccc2C1 [Example 34, (S)-1,1-Dimethyl-2-[2-((indan-2-yl)(2-methylphenyl)amino)ethyl]piperidinium iodide]",–,–,–,–,10 to 100,–
"C[N+]1(C)CCCCC1CN(c1cccc(F)c1)C1Cc2ccccc2C1.[I-] (stereo not drawn) [Example 31, 1,1-Dimethyl-2-[((3-fluorophenyl)(indan-2-yl)amino)methyl]piperidinium iodide]",3.8,62.6 (N = 2) %,Insoluble,Insoluble,–,–
